Our source for the IC50 values is patent US11414395B2, “Heterocyclic compounds as modulators of mGluR7” (PRAGMA Therapeutics, priority 2017, dated 2022).

Where only a bound is given, the exact number is not on record here.

Sequence of human mGluR7 (Q14831 35-915): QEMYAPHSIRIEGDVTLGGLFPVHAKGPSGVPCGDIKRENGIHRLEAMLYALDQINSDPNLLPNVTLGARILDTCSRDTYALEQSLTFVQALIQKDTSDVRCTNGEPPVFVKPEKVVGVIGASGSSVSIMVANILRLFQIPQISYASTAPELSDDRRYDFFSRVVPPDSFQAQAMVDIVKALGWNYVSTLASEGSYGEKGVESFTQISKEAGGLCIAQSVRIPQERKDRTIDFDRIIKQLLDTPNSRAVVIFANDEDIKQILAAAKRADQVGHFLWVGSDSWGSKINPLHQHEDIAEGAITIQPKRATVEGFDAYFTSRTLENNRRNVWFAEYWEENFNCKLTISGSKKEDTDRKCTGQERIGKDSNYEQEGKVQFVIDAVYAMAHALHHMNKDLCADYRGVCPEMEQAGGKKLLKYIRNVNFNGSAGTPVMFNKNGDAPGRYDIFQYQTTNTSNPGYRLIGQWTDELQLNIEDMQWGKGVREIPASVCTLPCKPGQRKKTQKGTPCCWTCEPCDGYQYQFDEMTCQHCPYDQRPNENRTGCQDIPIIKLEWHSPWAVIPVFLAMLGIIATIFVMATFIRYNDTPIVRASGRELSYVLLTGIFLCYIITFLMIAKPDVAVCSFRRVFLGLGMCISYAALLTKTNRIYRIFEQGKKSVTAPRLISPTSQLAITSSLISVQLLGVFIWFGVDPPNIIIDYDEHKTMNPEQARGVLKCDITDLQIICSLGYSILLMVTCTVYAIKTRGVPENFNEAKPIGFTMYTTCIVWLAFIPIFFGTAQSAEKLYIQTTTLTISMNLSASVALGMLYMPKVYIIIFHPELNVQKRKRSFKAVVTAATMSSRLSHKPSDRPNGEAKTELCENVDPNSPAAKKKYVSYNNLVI

The assay has as its target human mGluR7 (Homo sapiens (Human), UniProt Q14831). The experiment in a line: Inositol monophosphate production assay (IP1 assay), inhibition of L-AP4 response. Type of assay: cell-based. To be noted: mean IC50 from at least two independent experiments; HEK293 cells transiently transfected with mGluR7, Gqtop and EAAC1; IP1 production vs EC80 L-AP4. A digest of the protocol:
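HEK293 cells transiently co-expressing mGluR7, chimeric Gq/Gi (Gqtop) and EAAC1, switched to Glutamax medium 3 h before stimulation. IP1 measured by competitive HTRF; inhibition of an EC80-equivalent L-AP4 response, triplicate points, four-parameter fit to log IC50, mean of ≥2 experiments.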
Regarding `CC(=O)Nc1cnc(-n2ncc3c(c2=O)CCC(c2cccc(OC4CC4)c2C)C3)nc1` (stereo not drawn) [Example 127, N-(2-(6-(3-cyclopropoxy-2-methylphenyl)-1-oxo-5,6,7,8-tetrahydrophthalazin-2(1H)-yl)pyrimidin-5-yl)acetamide], the 50% inhibitory concentration (IC50) (commonly the midpoint of a concentration-inhibition curve) is less than 500 nM.

Molecule `COc1ccc(C)c(C2CCc3c(cnn(-c4ncc(C)cn4)c3=O)C2)c1` (stereo not drawn) [Example 47, 6-(5-methoxy-2-methylphenyl)-2-(5-methylpyrimidin-2-yl)-5,6,7,8-tetrahydrophthalazin-1(2H)-one] displayed a half-inhibitory concentration (IC50) of less than 500 nM.

Molecule `COc1cccc(C2CCc3c(cnn(-c4ccc(N5CCOCC5)cn4)c3=O)C2)c1C` (stereo not drawn) [Example 113, 6-(3-methoxy-2-methylphenyl)-2-(5-morpholinopyridin-2-yl)-5,6,7,8-tetrahydrophthalazin-1(2H)-one] gave an IC50 of less than 500 nM.

For `O=c1c2c(cnn1-c1ncccn1)CC(c1cccc(OC3CC3)c1)CC2` (stereo not drawn) [Example 85, 6-(3-cyclopropoxyphenyl)-2-(pyrimidin-2-yl)-5,6,7,8-tetrahydrophthalazin-1(2H)-one], the IC50 is less than 500 nM.

Turning to `COc1cc(C)ccc1C1CCc2c(cnn(-c3ccccn3)c2=O)C1` (stereo not drawn) [Example 67, 6-(2-methoxy-4-methylphenyl)-2-(pyridin-2-yl)-5,6,7,8-tetrahydrophthalazin-1(2H)-one], the IC50 lay in the range of 500 to 1000 nM.

In the case of `Cc1ccc(C2CCc3c(cnn(-c4ncccc4F)c3=O)C2)c(C)c1` (stereo not drawn) [Example 12, 6-(2,4-dimethylphenyl)-2-(3-fluoropyridin-2-yl)-5,6,7,8-tetrahydrophthalazin-1(2H)-one], the IC50 was less than 500 nM.

Molecule `COc1cc(C2CCc3c(cnn(-c4ncccn4)c3=O)C2)c(C)cc1C` (stereo not drawn) [Example 97, 6-(5-methoxy-2,4-dimethylphenyl)-2-(pyrimidin-2-yl)-5,6,7,8-tetrahydrophthalazin-1(2H)-one] registered an IC50 of less than 500 nM.

`Cc1ccc(C2CCc3c(cnn(-c4ccccn4)c3=O)C2)c(C)c1` (stereo not drawn) [Example 1, 6-(2,4-dimethyl-phenyl)-2-pyridin-2-yl-5,6,7,8-tetrahydro-2H-phthalazin-1-one] had a half-inhibitory concentration (IC50) of less than 500 nM.

The molecule `O=c1c2c(cnn1-c1ncccn1)CC(c1cccc3c1CCN3C1CC1)CC2` (stereo not drawn) [Example 92, 6-(1-cyclopropylindolin-4-yl)-2-(pyrimidin-2-yl)-5,6,7,8-tetrahydrophthalazin-1(2H)-one] registered an IC50 of less than 500 nM.

`Cc1ccc(C2CCc3c(cnn(-c4cc(F)ccn4)c3=O)C2)c(C)c1` (stereo not drawn) [Example 11, 6-(2,4-dimethylphenyl)-2-(4-fluoropyridin-2-yl)-5,6,7,8-tetrahydrophthalazin-1(2H)-one] returned an IC50 of less than 500 nM.

Turning to `COc1ccc(F)c(C2CCc3c(cnn(-c4ncccn4)c3=O)C2)c1F` (stereo not drawn) [Example 90, 6-(2,6-difluoro-3-methoxyphenyl)-2-(pyrimidin-2-yl)-5,6,7,8-tetrahydrophthalazin-1(2H)-one], the half-maximal inhibitory concentration (IC50) is less than 500 nM.

Take `Cc1ccc(C2CCc3c(cnn(-c4ccc(Cl)cn4)c3=O)C2)c(C)c1` (stereo not drawn) [Example 6, 6-(2,4-dimethylphenyl)-2-(5-chlororopyridin-2-yl)-5,6,7,8-tetrahydro-phthalazin-1(2H)-one]: the IC50 is less than 500 nM.

`Cc1ccc(C2CCc3c(cnn(-c4ccc(C#N)cn4)c3=O)C2)c(C)c1` (stereo not drawn) [Example 22, 6-(6-(2,4-dimethylphenyl)-1-oxo-5,6,7,8-tetrahydrophthalazin-2(1H)-yl)nicotinonitrile] yielded an IC50 of less than 500 nM.

`CC(=O)Nc1cnc(-n2ncc3c(c2=O)CCC(c2ccc(C)cc2C)C3)nc1` (stereo not drawn) [Example 117, N-(2-(6-(2,4-dimethylphenyl)-1-oxo-5,6,7,8-tetrahydrophthalazin-2(1H)-yl)pyrimidin-5-yl)acetamide] returned an IC50 of less than 500 nM.

`CC(O)c1cccc(C2CCc3c(cnn(-c4ccccn4)c3=O)C2)c1` (stereo not drawn) [Example 65, 6-(3-(1-hydroxyethyl)phenyl)-2-(pyridin-2-yl)-5,6,7,8-tetrahydrophthalazin-1(2H)-one] yielded an IC50 of 500 to 1000 nM.

The molecule `Cc1ccc(C2CCc3c(cnn(-c4ncc(C5CC5)cn4)c3=O)C2)c(C)c1` (stereo not drawn) [Example 109, 2-(5-cyclopropylpyrimidin-2-yl)-6-(2,4-dimethylphenyl)-5,6,7,8-tetrahydrophthalazin-1(2H)-one] yielded a concentration for half-maximal inhibition (IC50) of less than 500 nM.

Consider `COc1ccnc(-n2ncc3c(c2=O)CCC(c2ccc(C)cc2C)C3)n1` (stereo not drawn) [Example 35, 6-(2,4-dimethylphenyl)-2-(4-methoxypyrimidin-2-yl)-5,6,7,8-tetrahydrophthalazin-1(2H)-one], for which the IC50 is less than 500 nM.

For `Cc1ccc(C2CCc3c(cnn(-c4cccc(C#N)n4)c3=O)C2)c(C)c1` (stereo not drawn) [Example 21, 6-(6-(2,4-dimethylphenyl)-1-oxo-5,6,7,8-tetrahydrophthalazin-2(1H)-yl)picolinonitrile], the IC50 is less than 500 nM.

`Cc1ccc(C2CCc3c(cnn(-c4nc(C)cc(C)n4)c3=O)C2)c(C)c1` (stereo not drawn) [Example 36, 6-(2,4-dimethylphenyl)-2-(4,6-dimethylpyrimidin-2-yl)-5,6,7,8-tetrahydrophthalazin-1(2H)-one] showed an IC50 of 1000 to 30000 nM.

For `COc1ccnc(-n2ncc3c(c2=O)CCC(c2ccc(C)cc2C)C3)c1` (stereo not drawn) [Example 15, 6-(2,4-dimethylphenyl)-2-(4-methoxypyridin-2-yl)-5,6,7,8-tetrahydrophthalazin-1(2H)-one], the IC50 is less than 500 nM.

`COc1ccc(Cl)c(C2CCc3c(cnn(-c4ncccn4)c3=O)C2)c1` (stereo not drawn) [Example 75, 6-(2-chloro-5-methoxyphenyl)-2-(pyrimidin-2-yl)-5,6,7,8-tetrahydrophthalazin-1(2H)-one] gave an IC50 of less than 500 nM.

The molecule `Cc1ccc(C2CCc3c(cnn(-c4ccc(O)cn4)c3=O)C2)c(C)c1` (stereo not drawn) [Example 25, 6-(2,4-dimethylphenyl)-2-(5-hydroxypyridin-2-yl)-5,6,7,8-tetrahydrophthalazin-1(2H)-one] registered an IC50 of less than 500 nM.

Turning to `CCOc1cccc(C2CCc3c(cnn(-c4ncccn4)c3=O)C2)c1C` (stereo not drawn) [Example 101, 6-(3-ethoxy-2-methylphenyl)-2-(pyrimidin-2-yl)-5,6,7,8-tetrahydrophthalazin-1(2H)-one], the IC50 was less than 500 nM.

In the case of `Cc1c(OC2CC2)cccc1C1CCc2c(cnn(-c3ncccn3)c2=O)C1` (single isomer, unassigned; (+)) [Example 129, (+)-6-(3-cyclopropoxy-2-methylphenyl)-2-(pyrimidin-2-yl)-5,6,7,8-tetrahydrophthalazin-1(2H)-one], the IC50 lay within 500 to 1000 nM.

Turning to `COCCOc1cnc(-n2ncc3c(c2=O)CCC(c2cccc(OC)c2C)C3)nc1` (stereo not drawn) [Example 118, 6-(3-methoxy-2-methylphenyl)-2-(5-(2-methoxyethoxy)pyrimidin-2-yl)-5,6,7,8-tetrahydrophthalazin-1(2H)-one], the IC50 was less than 500 nM.

On to `O=c1c2c(cnn1-c1ncccn1)CC(c1cccc(OC3CC3)c1Cl)CC2` (stereo not drawn) [Example 91, 6-(2-chloro-3-cyclopropoxyphenyl)-2-(pyrimidin-2-yl)-5,6,7,8-tetrahydrophthalazin-1(2H)-one], for which the IC50 is less than 500 nM.

`Cc1ccc(C2CCc3c(cnn(-c4ncc(N5CCC5)cn4)c3=O)C2)c(C)c1` (stereo not drawn) [Example 116, 2-(5-(azetidin-1-yl)pyrimidin-2-yl)-6-(2,4-dimethylphenyl)-5,6,7,8-tetrahydrophthalazin-1(2H)-one]: the IC50 was less than 500 nM.

`O=c1c2c(cnn1-c1ncccn1)CC(c1cccc(OC3CCCC3)c1)CC2` (stereo not drawn) [Example 86, 6-(3-(cyclopentyloxy)phenyl)-2-(pyrimidin-2-yl)-5,6,7,8-tetrahydrophthalazin-1(2H)-one]: the half-maximal inhibitory concentration (IC50) was 500 to 1000 nM.

Molecule `COc1ccc(C)c(C2CCc3c(cnn(-c4ccccn4)c3=O)C2)c1` (stereo not drawn) [Example 61, 6-(5-methoxy-2-methylphenyl)-2-(pyridin-2-yl)-5,6,7,8-tetrahydrophthalazin-1(2H)-one] displayed an IC50 of less than 500 nM.

In turn, `Cc1ccc(C2CCc3c(cnn(-c4ncccn4)c3=O)C2)c(C)c1` (stereo not drawn) [Example 29, 6-(2,4-dimethylphenyl)-2-(pyrimidin-2-yl)-5,6,7,8-tetrahydrophthalazin-1(2H)-one] returned an IC50 of less than 500 nM.

Take `COc1ccnc(-n2ncc3c(c2=O)CCC(c2cccc(OC)c2C)C3)n1` (stereo not drawn) [Example 42, 6-(3-methoxy-2-methylphenyl)-2-(4-methoxypyrimidin-2-yl)-5,6,7,8-tetrahydrophthalazin-1(2H)-one]: the IC50 is less than 500 nM.

`Cc1cccc(C2CCc3c(cnn(-c4ncccn4)c3=O)C2)c1C` (stereo not drawn) [Example 82, 6-(2,3-dimethylphenyl)-2-(pyrimidin-2-yl)-5,6,7,8-tetrahydrophthalazin-1(2H)-one] yielded an IC50 of 500 to 1000 nM.

As to `Cc1ccc2c(cnn2C)c1C1CCc2c(cnn(-c3ncccn3)c2=O)C1` (stereo not drawn) [Example 88, 6-(1,5-dimethyl-1H-indazol-4-yl)-2-(pyrimidin-2-yl)-5,6,7,8-tetrahydrophthalazin-1(2H)-one], the IC50 fell in the range of 1000 to 30000 nM.
